# Experimental data: patent EP1731520A1, “Pyrrolo[2,3-d]pyrimidine derivatives which are antagonists of adenosine A1, A2A, and A3” (OSI Pharmaceuticals, Inc., priority 1999, dated 2001)
# pKi: −log10 of the molar value.
# Target: T1, human A3 receptor subtype (Homo sapiens, UniProt P0DMS8)
# T1 sequence (P0DMS8 1-318): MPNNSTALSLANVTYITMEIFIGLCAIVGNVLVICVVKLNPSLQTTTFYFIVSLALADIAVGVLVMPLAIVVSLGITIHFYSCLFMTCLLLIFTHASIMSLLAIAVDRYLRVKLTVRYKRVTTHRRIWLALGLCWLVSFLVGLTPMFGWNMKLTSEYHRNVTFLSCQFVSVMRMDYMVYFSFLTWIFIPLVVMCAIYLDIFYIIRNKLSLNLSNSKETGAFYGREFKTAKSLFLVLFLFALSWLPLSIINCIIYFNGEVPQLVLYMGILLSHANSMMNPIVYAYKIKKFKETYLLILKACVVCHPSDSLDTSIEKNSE
# Assay: Adenosine 3 receptor competition radioligand binding, [125I] AB-MECA, HEK293 membranes
# Conditions: Table 17, Adenosine A3 Receptor Selective Compounds
row,Compound,Ki-A3 (selectivity versus other three subtypes)
1,OCC1CN(c2nc(-c3ccccc3)nc3[nH]ccc23)C1 [Compound 1711],* (at least 10 times more selective than other three subtypes.)
2,CCNC(=O)NCCCNc1nc(-c2ccccc2)nc2[nH]c(C)c(C)c12 [Compound 1704],* (at least 10 times more selective than other three subtypes.)
3,Cc1[nH]c2nc(-c3ccccc3)nc(NC3CCC(OC(=O)CN)C3)c2c1C (stereo not shown) [Compound 1705],* (at least 10 times more selective than other three subtypes.)
4,OC1CCC(Nc2nc(-c3ccccc3)nc3[nH]ccc23)C1 (stereo not shown) [Compound 1706],* (at least 10 times more selective than other three subtypes.)
5,OC[C@@H](Nc1nc(-c2ccccc2)nc2[nH]c(COc3cccc(Cl)c3)cc12)c1ccccc1 [Compound 1714],* (at least 10 times more selective than other three subtypes.)
6,CC(=O)NC(CNc1nc(-c2ccccc2)nc2[nH]c(C)c(C)c12)C(C)C (stereo not shown) [Compound 1700],* (at least 10 times more selective than other three subtypes.)
7,Clc1cccc(OCc2cc3c(NCCc4ccc[nH]4)nc(-c4ccccc4)nc3[nH]2)c1 [Compound 1712],* (at least 10 times more selective than other three subtypes.)
8,CC(=S)NCCNc1nc(-c2ccccc2)nc2[nH]c(C)c(C)c12 [Compound 1702],* (at least 10 times more selective than other three subtypes.)
9,CNC(=O)N1CCCCC1CNc1nc(-c2ccccc2)nc2[nH]c(COc3cccc(Cl)c3)cc12 (stereo not shown) [Compound 1715],* (at least 10 times more selective than other three subtypes.)

# Target: human A1 receptor subtype (Homo sapiens, UniProt P30542)
# Sequence (P30542 whole entry): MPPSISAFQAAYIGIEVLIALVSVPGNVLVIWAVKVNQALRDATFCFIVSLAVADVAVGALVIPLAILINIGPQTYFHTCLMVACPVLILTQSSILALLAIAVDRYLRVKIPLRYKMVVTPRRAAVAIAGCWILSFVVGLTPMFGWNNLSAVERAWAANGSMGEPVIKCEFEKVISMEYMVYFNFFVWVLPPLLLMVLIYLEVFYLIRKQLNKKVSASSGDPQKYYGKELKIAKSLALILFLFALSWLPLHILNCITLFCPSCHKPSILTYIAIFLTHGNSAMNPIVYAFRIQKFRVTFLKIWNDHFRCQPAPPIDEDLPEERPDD
# Assay: not given
# Conditions: Table 15, Adenosine A1 Receptor Selective Compounds
row,Compound,Ki-A1 (selectivity versus other three subtypes)
1,CC(=O)NCCNc1nc(-c2ccccc2)nc2[nH]ccc12 [Compound 1501],* (at least 10 times more selective than other three subtypes.)
2,O[C@H]1CC[C@H](Nc2nc(-c3ccccc3)nc3[nH]c(CN4CCSCC4)cc23)CC1 [Compound 1504],* (at least 10 times more selective than other three subtypes.)
3,CNC(=O)NCCNc1nc(-c2cccc(Cl)c2)nc2[nH]ccc12 [Compound 1502],* (at least 10 times more selective than other three subtypes.)
4,CNC(=O)NC1CCCCC1Nc1nc(-c2ccccc2)nc2[nH]c(C)c(C)c12 (stereo not shown) [Compound 1500],* (at least 10 times more selective than other three subtypes.)
5,O[C@H]1CC[C@H](Nc2nc(-c3ccccc3)nc3[nH]c(CN4CCOCC4)cc23)CC1 [Compound 1503],* (at least 10 times more selective than other three subtypes.)

# Same assay, conditions: read-out: Al Binding Ki; Table 6, Effect of N6-Substituent
row,pKi,Compound
1,7.46,Cc1[nH]c2nc(-c3ccccc3)nc(N[C@@H]3C[C@@H](O)[C@@H](O)C3)c2c1C [Compound 616]
2,< 8.00,Cc1[nH]c2nc(-c3ccccc3)nc(NC3CCC(NS(C)(=O)=O)CC3)c2c1C (stereo not shown) [Compound 604]
3,6.10,Cc1[nH]c2nc(-c3ccccc3)nc(NC3CCC(OC(=O)c4ccccc4)CC3)c2c1C (stereo not shown) [Compound 611]

# Same assay, conditions: read-out: Al Binding Ki; Table 7, Effect of C2-Substituent
row,pKi,Compound
1,5.67,Cc1[nH]c2nc(C(C)C)nc(N[C@H]3CC[C@H](O)CC3)c2c1C [Compound 708]
2,7.31,Cc1[nH]c2nc(-c3ccccc3F)nc(N[C@H]3CC[C@H](O)CC3)c2c1C [Compound 709]

# Same assay, conditions: saturation and competition radio ligand binding
row,A1 receptor binding affinity compared with reference compounds 1318 or 1319,Compound
1,equaled or surpassed,OCCOCc1cc2c(N[C@H]3CC[C@H](O)CC3)nc(-c3ccccc3)nc2[nH]1 [Compound 1516]
2,equaled or surpassed,"NC(=O)C1CCCN1c1nc(-c2ccccc2)nc2[nH]c(C(=O)O)cc12 (stereo not shown) [Compound 1511, [4-(2-Carbamoylpyrrolidin-1-yl)-2-phenyl-7H-pyrrolo[2,3-d]pyrimidine-6-carboxylic acid]]"
3,equaled or surpassed,"NC(=O)C1CCCN1c1nc(-c2ccccc2)nc2[nH]c(COCC(=O)O)cc12 (stereo not shown) [Compound 1519, [4-(2-Carbamoyl-pyrrolidin-1-yl) -2-phenyl-7H-pyrrolo[2,3-d]pyrimidin-6-ylmethoxy]-acetic acid]"
4,equaled or surpassed,"NC(=O)c1cc2c(NC3CCC(O)CC3)nc(-c3ccccc3)nc2[nH]1 (stereo not shown) [Compound 1520, 4-(4-Hydroxy-cyclohexylamino)-2-phenyl-7H-pyrrolo[2,3-d]pyrimidine-6-carboxylic acid amide]"
5,equaled or surpassed,NC(=O)COCc1cc2c(N3CCC[C@H]3C(N)=O)nc(-c3ccccc3)nc2[nH]1 [Compound 1510]
6,equaled or surpassed,"NC(=O)[C@@H]1CCCN1c1nc(-c2ccccc2)nc2[nH]c(CCC(=O)O)cc12 [Compound 1509, 3-[4-((S)-2-Carbamoyl-pyrrolodin-1-yl)-2-phenyl-7H-pyrrolo[2,3-d]pyrimidin-6-yl]-propionic acid]"
7,equaled or surpassed,"NC(=O)C1CC(O)CN1c1nc(-c2ccccc2)nc2[nH]ccc12 (stereo not shown) [Compound 1508, 4-Hydroxy-1-(2-phenyl-7H-pyrrolo[2,3-d]pyrimidin-4-yl]-pyrrolidine-2-carboxylic acid amide]"
8,equaled or surpassed,"COC(=O)COCc1cc2c(N3CCCC3C(N)=O)nc(-c3ccccc3)nc2[nH]1 (stereo not shown) [Compound 1518, [4-(2-Carbamoyl-pyrrolidin-1-yl) -2-phenyl-7H-pyrrolo[2,3-d]pyrimidin-6-ylmethoxy]-acetic acid methyl ester]"
9,equaled or surpassed,"Cc1cc2c(N3CCC[C@H]3C(N)=O)nc(-c3ccccc3)nc2[nH]1 [Compound 1512, 1-(6-methyl-2-phenyl-7H-pyrrolo[2,3-d]pyrimidine-4-yl)-(S)-pyrrolidine-2-carboxylic acid amide]"
10,equaled or surpassed,"OC1CCC(Nc2nc(-c3ccccc3)nc3[nH]c(Cn4ccnc4)cc23)CC1 (stereo not shown) [Compound 1514, 4-(6-Imidazol-1-ylmethyl-2-phenyl-7H-pyrrolo[2,3-d]pyrimidin-4-ylamino)-cyclohexanol]"
11,equaled or surpassed,"NC(=O)C1CCCN1c1nc(-c2ccccc2)nc2[nH]c(COCCO)cc12 (stereo not shown) [Compound 1513, 1-[6-(2-Hydroxy-ethoxymethyl) -2-phenyl-7H-pyrrolo[2,3-d]pyrimidin-4-yl]-pyrrolidine-2-carb oxylic acid amide]"
12,equaled or surpassed,"COC(=O)c1cc2c(NC3CCC(O)CC3)nc(-c3ccccc3)nc2[nH]1 (stereo not shown) [Compound 1517, 4-(4-Hydroxy-cyclohexylamino) -2-phenyl-7H-pyrrolo[2,3-d]pyrimidine-6-carboxylic acid methyl ester]"
13,equaled or surpassed,NC(=O)[C@@H]1CCCN1c1nc(-c2ccccc2)nc2[nH]ccc12 [Compound 1506]
14,equaled or surpassed,COCc1cc2c(N3CCC[C@H]3C(N)=O)nc(-c3ccccc3)nc2[nH]1 [Compound 1507]

row,Compound,A1 receptor binding affinity compared with reference compounds 1318 or 1319
1,"1-[6-(4-Hydroxy-4-phenyl-piperidin-1-yl-methyl)-2-phenyl-7H-pyrrolo[2,3-d]pyrimidin-4-yl]-pyrrolidine-2-carboxylic acid amide [Compound 1505]",equaled or surpassed
